Laboratory results from a melting point compilation (Tetko et al.; mined from patent text by program, amines drawn as free bases though some values may be those of a salt).

SMILES	melting point [°C]
CC(=O)Oc1cc(N2C(=O)C=CC2=O)ccc1C(=O)O	110 to 119
CCCCCCC1(c2cc(O)c([C@@H]3CC(=O)C4CC3C4(C)C)c(O)c2)OCCO1 (stereo partly drawn)	185 to 186
C[C@H](NC(=O)c1ccccc1)C(=O)N[C@@H](C)C(=O)Nc1ccccc1	245 to 248
CCC(=O)NCC[C@@H]1CCc2ccc3c(c21)CCO3	113 to 115
OCCCCOCCCCOCCCCOCCCCO	22
CC(=CC(C)C)c1ccccc1NC(=O)c1cn(C)nc1C(F)(F)F	66 to 74
CC(C)N(C)c1ncc(C2CC2(C)C(N)=O)cc1Cl (stereo not drawn)	86 to 87
O=C1Nc2cnncc2C(=O)C1c1c(F)cc(F)cc1F (stereo not drawn)	> 300
COc1cc(OC)nc(C(=O)O)n1	155 to 157
C=CCOC(=O)[C@@H]1CCC[C@@H]1C(N)=O (relative stereo)	35
COc1cc(C=CC=O)ccc1OC(C)C	93 to 94
O=C(NN1CCCC1)C(CS)Cc1ccccc1 (stereo not drawn)	93
CC(C)(C)C(=O)OCC(COC(=O)C(C)(C)C)OCn1cnc2c(=O)[nH]c(N)nc21	230 to 232
COc1nc(C(F)(F)F)c(F)c(=O)n1-c1cc(C(=O)O)c(Cl)cc1F	199 to 201
Cc1nc2ccnn2c2c1CCN2C(C)(C)C	144 to 146
C/C(=C\CNc1ncnc2nc(N(C)C)[nH]c12)CO	245 to 249
NC(=O)c1ncn(C2OC(COC(=O)c3ccccc3)C(O)C2O)n1 (stereo not drawn)	182 to 184

SMILES	melting point [°C]
O=C(CSc1ncccn1)NC/C=C\COc1cc(CN2CCCCC2)ccn1	103 to 106
O=C1NCCC[C@@H]1NS(=O)(=O)c1ccc(F)c(F)c1	153 to 155
O=C(O)CCCn1c(=O)[nH]c2ccccc21	180
CC1NC(=O)NN=C1c1ccc(N)c(Cl)c1 (stereo not drawn)	229 to 231
CC(C)Sc1sc(-c2nnn(C)n2)c2c1C(=O)CC(C)(C)C2	180 to 183
COc1ccc(OC)c2c1CC[C@](O)(C(C)=O)C2	117 to 120
Cc1cc(N2CCN(C(=O)OC(C)(C)C)CC2)ccc1[N+](=O)[O-]	145 to 146
CCCCCCCCOc1ccc(C(=O)OC(C)c2cc3c(s2)-n2c(C)nnc2CN=C3c2ccccc2Cl)cc1 (stereo not drawn)	56 to 61
CC(C)(C)OC(=O)NCc1cccc2c1CN(C1CCC(=O)NC1=O)C2=O (stereo not drawn)	239 to 241
CCC1=C(O)C(=O)CC1	39 to 41
N#Cc1ccc(N2C(=O)[C@H]3C(O)C(O)CN3C2=O)c2ccccc12 (stereo partly drawn)	225
O=Cc1ccc(O)cn1	134 to 135
O=C(Nc1cc(CN2CCOCC2)c(O)c(CN2CCOCC2)c1)c1ccccc1	152 to 154
CCCCCCCCNC(=O)OCc1ccccc1[N+](=O)[O-]	70 to 71
CCCC(=O)NCCC1CCc2ccc3c(c21)OCO3 (stereo not drawn)	71 to 73
CC(C)c1nc2cc3c(cc2[nH]1)NC(=O)C3(C)C	282 to 284
COC(=O)c1ccc(N2CCCC2=O)cc1	118 to 120

The remaining lines, values ahead:

melting point [°C]	SMILES
192	CN(C1CCN(CCCC(F)(F)F)CC1)S(=O)(=O)c1ccc(Nc2nccc(Nc3ccc(F)c(F)c3)n2)cc1
71 to 73	CCOC(=O)COc1cc(C)c(C)c2c1CC(Br)C2=O (stereo not drawn)
94 to 96	COC(CCSCC=O)=NNS(=O)(=O)c1ccc(C)cc1
70 to 72	CCOC(=O)Cc1ccc(OCCCN2C(=O)c3ccccc3C2=O)c(OC)c1
192 to 194	CC(c1cccc(F)c1)n1ncc(-c2ccc(S(N)(=O)=O)cc2)c(-c2ccc(F)cc2)c1=O (stereo not drawn)
127 to 129	CCNC(=N)Nc1nc2ccc(OC(F)(F)F)cc2s1
141 to 143	COC(=O)c1ccccc1NC(=O)C=C(c1ccc(Cl)cc1)c1ccc(Cl)cc1
242 to 243	Clc1cc(Cl)cc(Oc2cccc(-c3nnc(Nc4ccc(Cl)c(Cl)c4)s3)c2)c1
133 to 135	CCOc1ccc(-c2c(C)c3cc(O)ccc3n2Cc2ccc(OCCN3CCCCCC3)cc2)cc1
149 to 150	COc1ccc(C(O)COc2ccc(C(=O)O)c(O)c2)cc1C(C)(C)C (stereo not drawn)
117 to 120	COc1cccc(C=CC(=O)CC(=O)C=Cc2cccc(OC)c2OC)c1OC
220 to 222	CN(C(=O)N1Cc2ncn(Cc3ccccc3)c2CC1C(=O)O)c1ccccc1 (stereo not drawn)
230 to 234	Cc1cccc(N)c1CNc1cccn2c(C=O)c(C)nc12
113 to 114	O=C1NCCc2ccc(OCCCCN3CCC(c4cccc(Cl)c4Cl)CC3)cc21
138 to 139	CCOC(=O)C1CS(=O)(=O)c2c(C(=O)c3ccccc3)cc(Cl)cc21 (stereo not drawn)
204 to 206	COc1cc(-c2ccc(O)c(C3(C)CCCCC3)c2)cc(CC2SC(N3CCCC3)=NC2=O)c1O (stereo not drawn)
262 to 263	Cc1nc(C)c(Cc2cccs2)c(NCc2ccc(-c3ccccc3-c3nnn[nH]3)cc2)n1
129	N#Cc1ccc(-c2ccc(OCCCCCC(=O)NO)cc2)cc1
123 to 124	CCCCCCCCc1ccc(S(=O)(=O)Nc2nncs2)cc1
184 to 190	N#Cc1c(N2CCc3ccccc3CC2)nc2n(c1=O)CCC2

melting point [°C]	SMILES
164	CC(C)(Oc1ccc(OCc2nc(-c3ccc(C(F)(F)F)cc3)no2)cc1)C(=O)O
160 to 163	COc1cccc2c(O)cnnc12
94 to 95	O=C(O)CCCCCCCn1ncc(-c2ccccc2)c1-c1ccccc1
202 to 207	COC(=O)c1ccc(N=Cc2ccc(Cl)c(Cl)c2)cn1
160 to 170	O=C(O)c1ccc2c(-c3ccccc3)coc2c1
85 to 87.5	COc1ccc(/C=C(\C#N)c2ccccc2OC)cc1OC1CCCC1
128 to 129	COc1nccnc1OCC(O)CN1CCC(N2CCN(c3ccccc3)C2=O)CC1 (stereo not drawn)
222 to 223	S=c1n(CNCc2ccc(Cl)cc2)nc(-c2ccncc2)n1-c1ccccc1
155 to 156	O=C(Nc1ccccc1F)C1C(=O)Sc2ccccc21 (stereo not drawn)
155	NS(=O)(=O)c1cccc(NC(=O)c2cnn3c(C(F)(F)F)cc(-c4ccc(C(F)(F)F)cc4)nc23)c1
56 to 69	c1ccc(C[C@@H]2CN(C3=Nc4ccccc4Sc4ccccc43)CCN2)cc1
168 to 170	CCc1cc(OCc2ccc(-c3ccccc3-c3nnn(C(c4ccccc4)(c4ccccc4)c4ccccc4)n3)cc2)c2c(n1)COCC2
241 to 242	O=c1nc(-c2cnccn2)sc2ccccc12
135 to 136	COC(=O)C(=O)c1ccc(OCCOc2ccnc3ccccc23)cc1
101 to 102	Cc1oc(-c2cccs2)nc1COc1ccc(CON=C(CCCCC(=O)O)c2ccccc2)cc1
139 to 140	CSc1noc(-c2ccc(OCCOc3ccc(C)cc3)cc2)c1C#N
180 to 181	CN1C(=O)c2cnc(-c3ccccc3)nc2N(C(=O)CN2CCOCC2)c2ccccc21
263 to 267	COc1ccc(C2C(C(=O)c3ccc(C(C)C)cc3)=C(O)C(=O)N2c2ccc(C)nn2)cc1 (stereo not drawn)
208 to 209	CCn1c(=O)c2c(nc(/C=C/c3ccc(OC(=O)c4ccccc4)cc3)n2C)n(CC)c1=O
